# According to PubChem BioAssay AID180 (DTP/NCI, 2004):
# Several values for one entry are separate records, joined by “and”; a condition that tells them apart may be missing. Equal values may be shown once.
# Tested on: BDF1 mice, Adenocarcinoma 755 s.c., tumor weight T/C
# Assay: NCI In Vivo Anticancer Drug Screen. Data for tumor model Adenocarcinoma 755 (subcutaneous) in B6D2F1 (BDF1) mice
# Details: endpoint: mean tumor weight, higher = larger tumour
# Method in brief: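 Values express treated (T) relative to vehicle-dosed control (C) animals, based on survival or tumour size measured after compound treatment of mice bearing a transplanted tumour.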
# [1] = dose: 12.5 mg/kg/injection, schedule: Q01DX011 (ip), vehicle: other
# [2] = dose: 25.0 mg/kg/injection, schedule: Q01DX011 (ip), vehicle: other
# [3] = dose: 50.0 mg/kg/injection, schedule: Q01DX011 (ip), vehicle: other
# [4] = dose: 75.0 mg/kg/injection, schedule: Q01DX011 (ip), vehicle: methylcellulose (MC)
# [5] = dose: 225.0 mg/kg/injection, schedule: Q01DX011 (ip), vehicle: methylcellulose (MC)
# [6] = dose: 30.0 mg/kg/injection, schedule: Q01DX011 (ip), vehicle: carboxymethylcellulose (CMC)
# [7] = dose: 120.0 mg/kg/injection, schedule: Q01DX011 (ip), vehicle: saline
# [8] = dose: 240.0 mg/kg/injection, schedule: Q01DX011 (ip), vehicle: saline
# [9] = dose: 31.0 mg/kg/injection, schedule: Q01DX011 (ip), vehicle: methylcellulose (MC)
# [10] = dose: 62.0 mg/kg/injection, schedule: Q01DX011 (ip), vehicle: methylcellulose (MC)
# [11] = dose: 150.0 mg/kg/injection, schedule: Q01DX011 (ip), vehicle: methylcellulose (MC)
# [12] = dose: 150.0 mg/kg/injection, schedule: Q01DX011 (ip), vehicle: saline
structure (smiles),measurement,setting,value
O=C(OCC1OC(n2cnc3c(=S)nc[nH]c32)C(OC(=O)c2ccc([N+](=O)[O-])cc2)C1OC(=O)c1ccc([N+](=O)[O-])cc1)c1ccc([N+](=O)[O-])cc1 (configuration not stated),T/C,"dose: 6.25 mg/kg/injection, schedule: Q01DX011 (ip), vehicle: other",70 % of control
same,T/C,[1],85 % of control
same,T/C,[2],58 % of control and 68 % of control
same,T/C,[3],52 % of control and 76 % of control
same,T/C,"dose: 75.0 mg/kg/injection, schedule: Q01DX011 (ip), vehicle: other",8 % of control
same,T/C,"dose: 150.0 mg/kg/injection, schedule: Q01DX011 (ip), vehicle: other",1 % of control
same,T/C,"dose: 200.0 mg/kg/injection, schedule: Q01DX011 (ip), vehicle: other",1 % of control and 6 % of control
same,T/C,"dose: 250.0 mg/kg/injection, schedule: Q01DX011 (ip), vehicle: other",3 % of control
CC1CCN(C(=O)CCCl)c2ccccc21 (configuration not stated),T/C,"dose: 25.0 mg/kg/injection, schedule: Q01DX011 (ip), vehicle: methylcellulose (MC)",101 % of control
same,T/C,[4],71 % of control
same,T/C,[5],82 % of control
CC(=O)[C@@]12OC(C)(C)O[C@@H]1C[C@H]1[C@@H]3C[C@H](C)C4=CC(=O)CC[C@]4(C)[C@H]3CC[C@@]12C,T/C,"dose: 56.0 mg/kg/injection, schedule: Q01DX011 (sc), vehicle: steriod suspending solution",28 % of control
same,T/C,"dose: 62.0 mg/kg/injection, schedule: Q01DX011 (sc), vehicle: steriod suspending solution",34 % of control
same,T/C,"dose: 75.0 mg/kg/injection, schedule: Q01DX011 (sc), vehicle: steriod suspending solution",38 % of control
same,T/C,"dose: 113.0 mg/kg/injection, schedule: Q01DX011 (sc), vehicle: steriod suspending solution",46 % of control
same,T/C,"dose: 125.0 mg/kg/injection, schedule: Q01DX011 (sc), vehicle: steriod suspending solution",21 % of control
same,T/C,"dose: 150.0 mg/kg/injection, schedule: Q01DX011 (sc), vehicle: steriod suspending solution",18 % of control
same,T/C,"dose: 225.0 mg/kg/injection, schedule: Q01DX011 (sc), vehicle: steriod suspending solution",24 % of control
same,T/C,"dose: 250.0 mg/kg/injection, schedule: Q01DX011 (sc), vehicle: steriod suspending solution",17 % of control
same,T/C,"dose: 300.0 mg/kg/injection, schedule: Q01DX011 (sc), vehicle: steriod suspending solution",15 % of control
same,T/C,"dose: 450.0 mg/kg/injection, schedule: Q01DX011 (sc), vehicle: steriod suspending solution",35 % of control
same,T/C,"dose: 600.0 mg/kg/injection, schedule: Q01DX011 (sc), vehicle: steriod suspending solution",14 % of control
same,T/C,"dose: 900.0 mg/kg/injection, schedule: Q01DX011 (sc), vehicle: steriod suspending solution",16 % of control
O=C(O)C(=O)c1ccc(-c2ccccc2)cc1,T/C,"dose: 3.7 mg/kg/injection, schedule: Q01DX011 (ip), vehicle: carboxymethylcellulose (CMC)",99 % of control
same,T/C,"dose: 7.5 mg/kg/injection, schedule: Q01DX011 (ip), vehicle: carboxymethylcellulose (CMC)",100 % of control
same,T/C,"dose: 15.0 mg/kg/injection, schedule: Q01DX011 (ip), vehicle: carboxymethylcellulose (CMC)",87 % of control
Nc1nc(SN=Nc2ccc(S(=O)(=O)O)cc2)c2[nH]cnc2n1,T/C,"dose: 0.13 mg/kg/injection, schedule: Q01DX011 (sc), vehicle: alkali diluted with saline",70 % of control
same,T/C,"dose: 0.25 mg/kg/injection, schedule: Q01DX011 (sc), vehicle: alkali diluted with saline",48 % of control
same,T/C,"dose: 0.5 mg/kg/injection, schedule: Q01DX011 (ip), vehicle: alkali diluted with saline",50 % of control
same,T/C,"dose: 0.5 mg/kg/injection, schedule: Q01DX011 (ip), vehicle: other",46 % of control
same,T/C,"dose: 0.5 mg/kg/injection, schedule: Q01DX011 (sc), vehicle: alkali diluted with saline",32 % of control
same,T/C,"dose: 1.0 mg/kg/injection, schedule: Q01DX011 (ip), vehicle: alkali diluted with saline",12 % of control
same,T/C,"dose: 1.0 mg/kg/injection, schedule: Q01DX011 (ip), vehicle: other",3 % of control
same,T/C,"dose: 2.0 mg/kg/injection, schedule: Q01DX011 (ip), vehicle: alkali diluted with saline",1 % of control
same,T/C,"dose: 8.0 mg/kg/injection, schedule: Q01DX011 (ip), vehicle: alkali diluted with saline",1 % of control
Cn1c(=O)c2ncn(CC(=O)O)c2n(C)c1=O,T/C,[6],45 % of control
same,T/C,"dose: 60.0 mg/kg/injection, schedule: Q01DX011 (ip), vehicle: carboxymethylcellulose (CMC)",156 % of control
same,T/C,"dose: 120.0 mg/kg/injection, schedule: Q01DX011 (ip), vehicle: carboxymethylcellulose (CMC)",99 % of control
same,T/C,"dose: 240.0 mg/kg/injection, schedule: Q01DX011 (ip), vehicle: carboxymethylcellulose (CMC)",120 % of control
ClCCN(CCCl)c1ccc(/C=C\c2ccnc3ccccc23)cc1,T/C,[6],65 % of control and 75 % of control
same,T/C,"dose: 115.0 mg/kg/injection, schedule: Q01DX011 (ip), vehicle: carboxymethylcellulose (CMC)",47 % of control and 69 % of control
same,T/C,"dose: 230.0 mg/kg/injection, schedule: Q01DX011 (ip), vehicle: carboxymethylcellulose (CMC)",71 % of control
CCCCCn1cnc2c(=S)nc[nH]c21,T/C,"dose: 31.0 mg/kg/injection, schedule: Q01DX011 (ip), vehicle: carboxymethylcellulose (CMC)",94 % of control
same,T/C,"dose: 62.0 mg/kg/injection, schedule: Q01DX011 (ip), vehicle: carboxymethylcellulose (CMC)",78 % of control
same,T/C,"dose: 125.0 mg/kg/injection, schedule: Q01DX011 (ip), vehicle: carboxymethylcellulose (CMC)",43 % of control
same,T/C,"dose: 250.0 mg/kg/injection, schedule: Q01DX011 (ip), vehicle: carboxymethylcellulose (CMC)",10 % of control
same,T/C,"dose: 500.0 mg/kg/injection, schedule: Q01DX011 (ip), vehicle: carboxymethylcellulose (CMC)",6 % of control
O=C(O)C(=O)O.[U],T/C,[1],73 % of control
same,T/C,"dose: 12.5 mg/kg/injection, schedule: Q01DX011 (ip), vehicle: saline",68 % of control
same,T/C,[2],50 % of control
same,T/C,"dose: 25.0 mg/kg/injection, schedule: Q01DX011 (ip), vehicle: saline",39 % of control
same,T/C,[3],49 % of control
same,T/C,"dose: 50.0 mg/kg/injection, schedule: Q01DX011 (ip), vehicle: saline",36 % of control
same,T/C,"dose: 100.0 mg/kg/injection, schedule: Q01DX011 (ip), vehicle: saline",25 % of control
Cn1cnc2nc[nH]c2c1=N,T/C,"dose: 30.0 mg/kg/injection, schedule: Q01DX011 (ip), vehicle: saline",115 % of control
same,T/C,"dose: 60.0 mg/kg/injection, schedule: Q01DX011 (ip), vehicle: saline",93 % of control
same,T/C,[7],74 % of control
same,T/C,[8],109 % of control
CCc1c(Cl)nc(N)nc1Nc1ccccc1Br,T/C,"dose: 15.0 mg/kg/injection, schedule: Q01DX011 (ip), vehicle: methylcellulose (MC)",96 % of control
same,T/C,[9],101 % of control
same,T/C,[10],76 % of control
same,T/C,"dose: 250.0 mg/kg/injection, schedule: Q01DX011 (ip), vehicle: methylcellulose (MC)",75 % of control
CC1(C)OC2C(CO)OC(n3cnc4c(SCc5ccccc5)ncnc43)C2O1 (configuration not stated),T/C,[9],79 % of control
same,T/C,[10],59 % of control
same,T/C,"dose: 125.0 mg/kg/injection, schedule: Q01DX011 (ip), vehicle: methylcellulose (MC)",50 % of control
Cc1ccc(CSc2ncnc3nc[nH]c23)cc1C,T/C,"dose: 18.75 mg/kg/injection, schedule: Q01DX011 (ip), vehicle: methylcellulose (MC)",48 % of control
same,T/C,"dose: 37.5 mg/kg/injection, schedule: Q01DX011 (ip), vehicle: methylcellulose (MC)",41 % of control
same,T/C,[4],32 % of control
same,T/C,[11],7 % of control
NC(CS)C(=O)O (configuration not stated) (tested in a mixture with another compound),T/C,[11],42 % of control
same,T/C,[12],56 % of control and 61 % of control
same,T/C,[5],31 % of control
same,T/C,"dose: 225.0 mg/kg/injection, schedule: Q01DX011 (ip), vehicle: saline",18 % of control
same,T/C,"dose: 275.0 mg/kg/injection, schedule: Q01DX011 (ip), vehicle: saline",55 % of control
same,T/C,"dose: 350.0 mg/kg/injection, schedule: Q01DX011 (ip), vehicle: methylcellulose (MC)",18 % of control
same,T/C,"dose: 350.0 mg/kg/injection, schedule: Q01DX011 (ip), vehicle: saline",35 % of control and 48 % of control
same,T/C,"dose: 500.0 mg/kg/injection, schedule: Q01DX011 (ip), vehicle: methylcellulose (MC)",19 % of control
NCC(=O)Nc1ccc(O)cc1,T/C,"dose: 200.0 mg/kg/injection, schedule: Q01DX011 (ip), vehicle: carboxymethylcellulose (CMC)",22 % of control and 42 % of control
Nc1nc(N)c2[nH]c(N=Nc3ccc(N(CCO)CCO)cc3)nc2n1,T/C,"dose: 37.5 mg/kg/injection, schedule: Q01DX011 (ip), vehicle: saline",152 % of control
same,T/C,[12],65 % of control
Cn1cnc2c(ncn2C2CC(O)C(CO)O2)c1=O (configuration not stated),T/C,[7],105 % of control
same,T/C,[8],98 % of control
